Marks after values point to notes of the source that are not given here.
How the values were obtained:
blood serum miRNAs [1] = experiment: Blood serum miRNAs (microarray), Study 1; type: in vivo, Swiss H mice
lung DNA = experiment: Bulky DNA adducts by 32P postlabeling, Study 2, lung; type: in vivo, ICR (CD-1) mice
Experimental: (§1) DNA was extracted from tissue specimens (50 mg) collected individually from the lungs of 40 Swiss H mice used in Study 1 and from lungs, heart and liver of 80 ICR (CD-1) mice used in Study 2, as previously described. Bulky DNA adducts, after butanol enrichment, and 8-hydroxy-2’-deoxyguanosine (8-oxo-dGuo) were measured by ^32P postlabeling as previously described.

heart DNA = experiment: Bulky DNA adducts by 32P postlabeling, Study 2, heart; type: in vivo, ICR (CD-1) mice; settings: for Bulky DNA adducts: Heart; for decrease of DNA adduct levels vs MCS-exposed mice without celecoxib / increase of DNA adduct levels over sham-exposed mice: heart
Experimental: (§2) Each group was composed of 10 female mice.
as §1

heart miRNAs = experiment: miRNA expression (microarray), Study 3, heart; type: in vivo, ICR (CD-1) mice
Experimental: as §2
(§3) The urine was collected for 8 h and pooled from the mice belonging to each experimental group in Study 3 by using metabolic cages during the day preceding euthanasia of mice. Immediately after sacrifice, a bronchoalveolar lavage (BAL) was performed and used for preparing BALF, and the blood was collected and used for preparing serum. BALF and blood serum were pooled within each experimental group. The organs reported in the general design of the studies were collected, as previously described. Immediately after collection, each organ or fluid was immersed in RNAlater and kept at -80°C for miRNA analysis. Portions of the organs used in Study 1 and Study 2 were stored at -80°C for evaluating DNA damage.
(§4) For evaluating the expression of pulmonary miRNAs we used the 7th generation miRCURY LNA™ microRNA Array (Exiqon), which contains 3,100 capture probes covering human, mouse and rat miRNAs. In particular, this array covers 1,135 mouse miRNAs, i.e. the 88.6% of the 1,281 mouse miRNAs listed in miRBase 19. Microarray analyses were carried out as previously described.
(§5) Treatment-related differences in body weights, in the frequency of MN NCE, and in the levels of pulmonary DNA adducts and 8-oxo-dGuo, all of them expressed as means ± SE within each group of mice, were evaluated for statistical significance by ANOVA followed by Student's t test for unpaired data. miRNA microarray data, after local background subtraction, log transformation, and normalization were analyzed by GeneSpring software (Agilent, Santa Clara, CA), and expression data were median centered by using the GeneSpring normalization option.

spleen miRNAs = experiment: miRNA expression (microarray), Study 3, spleen; type: in vivo, ICR (CD-1) mice
Experimental: as §2, §3, §4, §5

skeletal muscle miRNAs = experiment: miRNA expression (microarray), Study 3, skeletal muscle; type: in vivo, ICR (CD-1) mice
Experimental: as §2, §3, §4, §5

stomach miRNAs = experiment: miRNA expression (microarray), Study 3, stomach; type: in vivo, ICR (CD-1) mice
Experimental: as §2, §3, §4, §5

blood serum miRNAs [2] = experiment: miRNA expression (microarray), Study 3, blood serum; type: in vivo, ICR (CD-1) mice
Experimental: as §2, §3, §4, §5

urine miRNAs = experiment: miRNA expression (microarray), Study 3, urine; type: in vivo, ICR (CD-1) mice
Experimental: as §2, §3, §4, §5

brain miRNAs = experiment: miRNA expression (microarray), Study 3, brain; type: in vivo, ICR (CD-1) mice; settings: high dose
Experimental: as §2
as §3, with “damage. […]” for “damage.”
as §5

[3] = mice, 1,000 mg/kg diet; cited from earlier work
pulmonary miRNAs = experiment: Pulmonary miRNA expression (microarray), Study 1
Experimental: Ten mice per group (5 males and 5 females) were used. […] Twenty mice per group (10 males and 10 females) were used. […] Each group was composed of 10 female mice.
RNA was extracted from mouse organs (miRNeasy, Qiagen, Hilden, Germany) and body fluids (Exiqon's miRCURY™ RNA Isolation Kit – Biofluids (Exiqon, Vedbaek, Denmark) according to the manufacturers’ instructions. The quality of the RNA extracted was evaluated by spectrophotometric analyses using a fiber optic spectrophotometer (Nanodrop ND-1000).
For evaluating the expression of pulmonary miRNAs we used the 7th generation miRCURY LNA™ microRNA Array (Exiqon), which contains 3,100 capture probes covering human, mouse and rat miRNAs. In particular, this array covers 1,135 mouse miRNAs, i.e. the 88.6% of the 1,281 mouse miRNAs listed in miRBase 19. Microarray analyses were carried out as previously described [22].
Treatment-related differences in body weights, in the frequency of MN NCE, and in the levels of pulmonary DNA adducts and 8-oxo-dGuo, all of them expressed as means ± SE within each group of mice, were evaluated for statistical significance by ANOVA followed by Student's t test for unpaired data. miRNA microarray data, after local background subtraction, log transformation, and normalization were analyzed by GeneSpring software (Agilent, Santa Clara, CA), and expression data were median centered by using the GeneSpring normalization option. The statistical significance of the differences between experimental groups was evaluated by means of the GeneSpring ANOVA applied by using Bonferroni multiple testing correction. […] The overall variability of microarray data, as related to treatments, was evaluated by scatter-plot analysis (SPA), hierarchical cluster analysis (HCA), and principal component analysis (PCA).

[4] = urine, low dose (20 mg/kg diet) vs sham
[5] = celecoxib in MCS-exposed mice vs MCS

Bulky DNA adducts (lung DNA; F): 3.7 ± 0.31^c adducts/10^8 nucleotides | Bulky DNA adducts (lung DNA; M): 4.4 ± 0.56^c adducts/10^8 nucleotides | Bulky DNA adducts (lung DNA; M + F): 4.0 ± 0.31^c adducts/10^8 nucleotides | increase of DNA adduct levels over sham-exposed mice (lung DNA; combined genders): 2.7 fold | increase of DNA adduct levels over sham-exposed mice (lung DNA; females): 2.5 fold | increase of DNA adduct levels over sham-exposed mice (lung DNA; males): 2.9 fold | autoradiographic spots formed (lung DNA; smoke-free mice): 3 | Bulky DNA adducts (heart DNA; F): 3.6 ± 0.37^c adducts/10^8 nucleotides | Bulky DNA adducts (heart DNA; M): 3.3 ± 0.18^c adducts/10^8 nucleotides | Bulky DNA adducts (heart DNA; M + F): 3.4 ± 0.17^c adducts/10^8 nucleotides | increase of DNA adduct levels over sham-exposed mice (heart DNA; combined genders): 2.2 fold | increase of DNA adduct levels over sham-exposed mice (heart DNA; females): 2.4 fold | increase of DNA adduct levels over sham-exposed mice (heart DNA; males): 2.1 fold
SMILES: Cc1ccc(-c2cc(C(F)(F)F)nn2-c2ccc(S(N)(=O)=O)cc2)cc1 [Celecoxib, 4-[5-(4-methylphenyl)-3-(trifluoromethyl)-1H-pyrazol-1-yl] benzene-1-sulfonamide]
number of blood miRNAs on which the effect of MCS was counteracted (blood serum miRNAs [1]; MCS-exposed mice given celecoxib): 7 | number of miRNAs significantly modulated in blood serum (blood serum miRNAs [1]; vs sham-exposed mice, 2-fold variation and P < 0.05): 18 | decrease of DNA adduct levels vs MCS-exposed mice without celecoxib (lung DNA; combined genders): 1.6 fold | decrease of DNA adduct levels vs MCS-exposed mice without celecoxib (lung DNA; males): 1.5 fold | decrease of DNA adduct levels vs MCS-exposed mice without celecoxib (lung DNA; printed 'males' a second time): 1.7 fold | decrease of DNA adduct levels vs MCS-exposed mice without celecoxib (heart DNA; combined genders): 1.3 fold | decrease of DNA adduct levels vs MCS-exposed mice without celecoxib (heart DNA; females): 1.5 fold | decrease of DNA adduct levels vs MCS-exposed mice without celecoxib (heart DNA; males (not statistically significant)): 1.1 fold | upregulated/downregulated miRNAs (heart miRNAs; MCS-exposed mice): 0/1 | upregulated/downregulated miRNAs (heart miRNAs; MCS-free mice): 0/2 | number of miRNAs modulated by celecoxib (heart miRNAs; high dose): 3 | upregulated/downregulated miRNAs (spleen miRNAs; MCS-exposed mice): 1/7 | miR-30c-2-5p downregulation (spleen miRNAs; MCS-free mice): 7 fold | upregulated/downregulated miRNAs (spleen miRNAs; MCS-free mice): 2/7 | number of miRNAs modulated by celecoxib (spleen miRNAs; high dose): 17 | miR-30e upregulation (skeletal muscle miRNAs; MCS-exposed mice): 9 fold | miR-125b downregulation (skeletal muscle miRNAs; MCS-exposed mice): 11 fold | miR-511 upregulation (skeletal muscle miRNAs; MCS-exposed mice): 5 fold | miR-695 downregulation (skeletal muscle miRNAs; MCS-exposed mice): 6 fold | miR-1964-5p downregulation (skeletal muscle miRNAs; MCS-exposed mice): 5 fold | upregulated/downregulated miRNAs (skeletal muscle miRNAs; MCS-exposed mice): 6/10 | upregulated/downregulated miRNAs (skeletal muscle miRNAs; MCS-free mice): 0/0 | number of miRNAs modulated by celecoxib (skeletal muscle miRNAs; high dose): 16 | miR-125b downregulation (stomach miRNAs; MCS-exposed mice): 9 fold | miR-802-3p upregulation (stomach miRNAs; MCS-exposed mice): 3 fold | upregulated/downregulated miRNAs (stomach miRNAs; MCS-exposed mice): 3/3 | miR-1964-5p downregulation (stomach miRNAs; MCS-free mice): 4 fold | upregulated/downregulated miRNAs (stomach miRNAs; MCS-free mice): 2/12 | number of miRNAs modulated by celecoxib (stomach miRNAs; high dose): 20 | upregulated/downregulated miRNAs (blood serum miRNAs [2]; blood serum, MCS-exposed mice): 2/3 | miR-1964-5p downregulation (blood serum miRNAs [2]; blood serum, MCS-free mice): 8 fold | upregulated/downregulated miRNAs (blood serum miRNAs [2]; blood serum, MCS-free mice): 2/11 | number of miRNAs modulated by celecoxib (blood serum miRNAs [2]; blood serum, high dose): 18 | number of miRNAs modulated (blood serum miRNAs [2]; blood serum, low dose): 2 | miR30c-5p downregulation (blood serum miRNAs [2]; blood serum, low dose (20 mg/kg diet) vs sham): 2.9 fold | miR-185 downregulation (blood serum miRNAs [2]; blood serum, low dose (20 mg/kg diet), compared to MCS-exposed mice): 2.1 fold | number of miRNAs modulated (blood serum miRNAs [2]; blood, high dose): 11 | number of miRNAs modulated (urine miRNAs; urine, high dose): 3 | number of miRNAs modulated (urine miRNAs; urine, low dose): 2 | miR-290 downregulation (urine miRNAs; [4]): 2.4 fold | miR-1945b downregulation (urine miRNAs; [4]): 2.4 fold | upregulated/downregulated miRNAs (urine miRNAs; urines, MCS-free mice): 0/3 | number of miRNAs modulated by celecoxib (urine miRNAs; urines, high dose): 3 | number of miRNAs modulated by celecoxib (brain miRNAs): 0 | plasma concentration [3]: 1600 ng/mL | number of pulmonary miRNAs significantly dysregulated (pulmonary miRNAs; [5]): 11 | share of pulmonary miRNAs significantly dysregulated (pulmonary miRNAs; [5]): 1.0% | number of pulmonary miRNAs downregulated (pulmonary miRNAs; vs sham-exposed mice): 2 | number of pulmonary miRNAs upregulated (pulmonary miRNAs; vs sham-exposed mice): 19

Reference: article PMC6154745 (Oncotarget, 2018)
